Data set [1] deals with T1, CYP1A2 (Homo sapiens, UniProt P05177).
T1 sequence (P05177 whole entry): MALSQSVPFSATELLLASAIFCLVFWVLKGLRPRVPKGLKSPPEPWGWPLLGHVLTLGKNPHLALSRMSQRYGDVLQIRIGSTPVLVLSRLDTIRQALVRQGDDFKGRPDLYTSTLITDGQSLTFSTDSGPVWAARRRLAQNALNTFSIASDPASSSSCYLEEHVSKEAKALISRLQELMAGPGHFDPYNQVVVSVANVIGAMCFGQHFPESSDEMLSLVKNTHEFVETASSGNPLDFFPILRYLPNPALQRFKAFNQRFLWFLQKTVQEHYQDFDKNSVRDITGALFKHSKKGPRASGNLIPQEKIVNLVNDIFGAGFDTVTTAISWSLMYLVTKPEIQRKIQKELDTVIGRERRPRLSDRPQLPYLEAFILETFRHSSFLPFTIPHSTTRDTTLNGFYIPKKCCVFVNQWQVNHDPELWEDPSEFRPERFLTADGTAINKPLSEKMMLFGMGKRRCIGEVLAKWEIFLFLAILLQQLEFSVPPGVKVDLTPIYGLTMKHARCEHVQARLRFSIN
The experiment in a line: Induction of CYP1A2 in human hepatocytes at 1000 uM after 72 hrs relative to control. In kind it is ADME, cell-based, Hepatocyte. To be noted: read-out: FC.

Data set [2] deals with T2, CYP2B6 (Homo sapiens, UniProt P20813).
T2 sequence (P20813 whole entry): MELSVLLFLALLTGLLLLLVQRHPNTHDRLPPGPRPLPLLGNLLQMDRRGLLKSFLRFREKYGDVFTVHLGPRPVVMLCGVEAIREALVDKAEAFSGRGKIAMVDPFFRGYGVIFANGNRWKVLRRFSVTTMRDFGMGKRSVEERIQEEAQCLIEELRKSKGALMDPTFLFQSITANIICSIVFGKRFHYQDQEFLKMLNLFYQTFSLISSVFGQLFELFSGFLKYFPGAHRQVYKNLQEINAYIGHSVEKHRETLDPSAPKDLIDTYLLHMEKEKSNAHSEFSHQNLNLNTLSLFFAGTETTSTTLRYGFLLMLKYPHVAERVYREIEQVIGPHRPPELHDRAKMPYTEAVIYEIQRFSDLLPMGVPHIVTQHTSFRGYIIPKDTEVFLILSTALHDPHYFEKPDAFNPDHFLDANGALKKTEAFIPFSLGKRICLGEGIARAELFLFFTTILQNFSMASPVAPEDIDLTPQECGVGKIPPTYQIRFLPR
Description: Induction of CYP2B6 in human hepatocytes at 1000 uM after 72 hrs relative to control. In kind it is ADME, cell-based, Hepatocyte. Conditions: read-out: FC.

Data set [3] has as its target T3, CYP3A4 (Homo sapiens, UniProt P08684). Description: Induction of CYP3A4 in human hepatocytes at 1000 uM after 72 hrs relative to control. Type of data set: ADME, cell-based, Hepatocyte. To be noted: read-out: FC.
The test system of data set [4] is Hepatitis C virus. The experiment in a line: Antiviral activity against Hepatitis C virus infected in human Huh7ET cells assessed as inhibition of viral replication after 72 hrs by luciferase reporter gene assay. Conditions: Huh-7, 72 h. Type of data set: functional, organism-based, Hepacivirus hominis.
Data set [5] deals with PBMC. Description: Antiinflammatory activity in human PBMC assessed as inhibition of anti-CD3/CD28 antibody-induced IL-2 production treated for 1 hr before anti-CD3/CD28 antibody challenge measured after 6 hrs by immunosuppression assay. Type of data set: functional, cell-based.
For data set [6], the target named is T1, CYP1A2. The experiment in a line: Induction of CYP1A2 in human hepatocytes at 2 uM after 72 hrs relative to control. To be noted: read-out: FC. Type of data set: ADME, cell-based, Hepatocyte.
The target of data set [7] is T2, CYP2B6. The experiment in a line: Induction of CYP2B6 in human hepatocytes at 2 uM after 72 hr relative to control. In kind it is ADME, cell-based, Hepatocyte. To be noted: read-out: FC.
Data set [8] deals with T3, CYP3A4. Description: Induction of CYP3A4 in human hepatocytes at 2 uM after 72 hrs relative to control. Type of data set: ADME, cell-based, Hepatocyte. To be noted: read-out: FC.

The structures appear in SMILES notation.

T3 sequence (P08684 whole entry): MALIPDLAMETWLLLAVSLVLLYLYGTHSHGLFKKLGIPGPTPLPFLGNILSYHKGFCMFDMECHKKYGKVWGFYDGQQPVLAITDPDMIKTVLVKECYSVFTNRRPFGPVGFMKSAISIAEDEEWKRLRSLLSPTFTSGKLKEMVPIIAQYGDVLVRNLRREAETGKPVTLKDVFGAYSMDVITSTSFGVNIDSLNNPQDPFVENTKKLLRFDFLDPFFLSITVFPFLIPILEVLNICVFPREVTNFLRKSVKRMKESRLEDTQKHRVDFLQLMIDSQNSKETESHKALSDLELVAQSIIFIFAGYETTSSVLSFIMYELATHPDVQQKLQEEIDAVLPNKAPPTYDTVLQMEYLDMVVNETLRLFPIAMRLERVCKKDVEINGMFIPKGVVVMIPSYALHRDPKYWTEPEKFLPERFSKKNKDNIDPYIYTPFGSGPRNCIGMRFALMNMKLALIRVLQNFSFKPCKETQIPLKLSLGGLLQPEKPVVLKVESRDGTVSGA

Regarding `CCC1(c2ccccc2)C(=O)NC(=O)NC1=O` [PHENOBARBITAL], the values for the fold induction at 72 h, 1000 µM in data set [1], in data set [2] and in data set [3] were 1.67, 9.1 and 6.73, respectively.

Usually CC50 stands for the concentration giving 50% cytotoxicity. By EC50 is commonly meant the concentration needed to bring the measured effect to its halfway point. As for `C/C=C/C[C@@H](C)[C@@H](O)[C@H]1C(=O)N[C@@H](CC)C(=O)N(C)CC(=O)N(C)[C@@H](CC(C)C)C(=O)N[C@@H](C(C)C)C(=O)N(C)[C@@H](CC(C)C)C(=O)N[C@@H](C)C(=O)N[C@H](C)C(=O)N(C)[C@@H](CC(C)C)C(=O)N(C)[C@@H](CC(C)C)C(=O)N(C)[C@@H](C(C)C)C(=O)N1C` [CYCLOSPORINE], the CC50 in data set [4] came out at 5620 nM. In addition, the EC50 in data set [5] stood at 3.1 nM.

Turning to `Cc1ccc2cc3c(ccc4ccccc43)c3c2c1CC3` [3-METHYLCHOLANTHRENE], the fold induction at 72 h, 2 µM in data set [6] is 21.2; in data set [7] it was 1.33; in data set [8], 0.97.

The values are drawn from ChEMBL document CHEMBL1212786 (Antimicrob Agents Chemother, 2010).
